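At the GI50, growth is halved. At the TGI there is no net growth.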
What was measured:
Experiment in all cases: DTP human tumour cell line panel, 384-well format; in the data active = GI50 below about 0.43 µM; inactive = the rest
HOP-62 NSCLC = system: HOP-62 NSCLC
MCF7 breast = system: MCF7 breast
OVCAR-4 ovarian = system: OVCAR-4 ovarian
COLO 205 colon = system: COLO 205 colon
A498 renal = system: A498 renal
OVCAR-3 ovarian = system: OVCAR-3 ovarian
TK-10 renal = system: TK-10 renal
OVCAR-5 ovarian = system: OVCAR-5 ovarian
SK-MEL-2 melanoma = system: SK-MEL-2 melanoma
KM12 colon = system: KM12 colon
NCI-H460 NSCLC = system: NCI-H460 NSCLC
SF-268 CNS = system: SF-268 CNS
MDA-MB-468 breast = system: MDA-MB-468 breast
SW-620 colon = system: SW-620 colon
SNB-75 CNS = system: SNB-75 CNS
HCC-2998 colon = system: HCC-2998 colon
PC-3 prostate = system: PC-3 prostate
T-47D breast = system: T-47D breast
ACHN renal = system: ACHN renal
RPMI-8226 leukemia = system: RPMI-8226 leukemia
IGROV1 ovarian = system: IGROV1 ovarian
DU-145 prostate = system: DU-145 prostate
SK-MEL-5 melanoma = system: SK-MEL-5 melanoma
SF-539 CNS = system: SF-539 CNS
CAKI-1 renal = system: CAKI-1 renal
M14 melanoma = system: M14 melanoma
786-0 renal = system: 786-0 renal
SK-MEL-28 melanoma = system: SK-MEL-28 melanoma
NCI-H522 lung = system: NCI-H522 lung
HT29 colon = system: HT29 colon
HCT-15 colon = system: HCT-15 colon
K-562 leukemia = system: K-562 leukemia
EKVX NSCLC = system: EKVX NSCLC
NCI-H23 lung = system: NCI-H23 lung
SNB-19 CNS = system: SNB-19 CNS
HOP-92 NSCLC = system: HOP-92 NSCLC
NCI/ADR-RES ovarian = system: NCI/ADR-RES ovarian
CCRF-CEM leukemia = system: CCRF-CEM leukemia
U251 glioblastoma = system: U251 glioblastoma
A549 NSCLC = system: A549 NSCLC
HS 578T breast = system: HS 578T breast
HCT-116 colon = system: HCT-116 colon
NCI-H322M lung = system: NCI-H322M lung
UACC-257 melanoma = system: UACC-257 melanoma
NCI-H226 lung = system: NCI-H226 lung
MDA-MB-231 breast = system: MDA-MB-231 breast
LOX IMVI melanoma = system: LOX IMVI melanoma
SR leukemia = system: SR leukemia
MDA-MB-435 melanoma = system: MDA-MB-435 melanoma
MOLT-4 leukemia = system: MOLT-4 leukemia
SN12C renal = system: SN12C renal
SF-295 CNS = system: SF-295 CNS
RXF 393 renal = system: RXF 393 renal
UACC-62 melanoma = system: UACC-62 melanoma
HL-60(TB) leukemia = system: HL-60(TB) leukemia
UO-31 renal = system: UO-31 renal
BT-549 breast = system: BT-549 breast
MALME-3M melanoma = system: MALME-3M melanoma
SK-OV-3 ovarian = system: SK-OV-3 ovarian
OVCAR-8 ovarian = system: OVCAR-8 ovarian

CS(=O)(=O)c1ccc(-c2cnc(NCc3ccco3)n3cnnc23)cc1
> 100 µM: TGI (HOP-62 NSCLC) | TGI (MCF7 breast) | TGI (OVCAR-4 ovarian) | TGI (COLO 205 colon) | TGI (A498 renal) | TGI (OVCAR-3 ovarian) | TGI (TK-10 renal) | TGI (OVCAR-5 ovarian) | TGI (SK-MEL-2 melanoma) | TGI (KM12 colon) | TGI (NCI-H460 NSCLC) | TGI (SF-268 CNS) | TGI (SW-620 colon) | TGI (SNB-75 CNS) | TGI (HCC-2998 colon) | TGI (PC-3 prostate) | TGI (T-47D breast) | TGI (ACHN renal) | TGI (IGROV1 ovarian) | TGI (DU-145 prostate) | TGI (SK-MEL-5 melanoma) | TGI (SF-539 CNS) | TGI (CAKI-1 renal) | TGI (M14 melanoma) | TGI (786-0 renal) | TGI (SK-MEL-28 melanoma) | TGI (NCI-H522 lung) | TGI (HT29 colon) | TGI (HCT-15 colon) | TGI (K-562 leukemia) | TGI (EKVX NSCLC) | TGI (NCI-H23 lung) | TGI (SNB-19 CNS) | TGI (HOP-92 NSCLC) | TGI (NCI/ADR-RES ovarian) | TGI (CCRF-CEM leukemia) | TGI (U251 glioblastoma) | TGI (A549 NSCLC) | TGI (HS 578T breast) | TGI (HCT-116 colon) | TGI (NCI-H322M lung) | TGI (UACC-257 melanoma) | TGI (NCI-H226 lung) | TGI (MDA-MB-231 breast) | TGI (LOX IMVI melanoma) | TGI (SR leukemia) | TGI (MDA-MB-435 melanoma) | TGI (MOLT-4 leukemia) | TGI (SN12C renal) | TGI (SF-295 CNS) | TGI (RXF 393 renal) | TGI (UACC-62 melanoma) | TGI (HL-60(TB) leukemia) | TGI (UO-31 renal) | TGI (BT-549 breast) | TGI (SK-OV-3 ovarian) | TGI (OVCAR-8 ovarian)
inactive: GI50 (HOP-62 NSCLC) > 100 µM | GI50 (MCF7 breast) > 100 µM | GI50 (OVCAR-4 ovarian) > 100 µM | GI50 (COLO 205 colon) 35.8 µM | GI50 (A498 renal) > 100 µM | GI50 (OVCAR-3 ovarian) > 100 µM | GI50 (TK-10 renal) > 100 µM | GI50 (OVCAR-5 ovarian) > 100 µM | GI50 (SK-MEL-2 melanoma) > 100 µM | GI50 (KM12 colon) > 100 µM | GI50 (NCI-H460 NSCLC) > 100 µM | GI50 (SF-268 CNS) > 100 µM | GI50 (MDA-MB-468 breast) 17.3 µM | GI50 (SW-620 colon) > 100 µM | GI50 (SNB-75 CNS) > 100 µM | GI50 (HCC-2998 colon) > 100 µM | GI50 (PC-3 prostate) > 100 µM | GI50 (T-47D breast) 66.3 µM | GI50 (ACHN renal) > 100 µM | GI50 (RPMI-8226 leukemia) 6.1 µM | GI50 (IGROV1 ovarian) > 100 µM | GI50 (DU-145 prostate) > 100 µM | GI50 (SK-MEL-5 melanoma) 37.2 µM | GI50 (SF-539 CNS) > 100 µM | GI50 (CAKI-1 renal) > 100 µM | GI50 (M14 melanoma) 29.6 µM | GI50 ([…]-0 renal) > 100 µM | GI50 (SK-MEL-28 melanoma) 30.3 µM | GI50 (NCI-H522 lung) > 100 µM | GI50 (HT29 colon) 61.3 µM | GI50 (HCT-15 colon) > 100 µM | GI50 (K-562 leukemia) > 95.2 µM | GI50 (EKVX NSCLC) > 100 µM | GI50 (NCI-H23 lung) > 100 µM | GI50 (SNB-19 CNS) > 100 µM | GI50 (HOP-92 NSCLC) > 55.1 µM | GI50 (NCI/ADR-RES ovarian) > 100 µM | GI50 (CCRF-CEM leukemia) > 85.5 µM | GI50 (U251 glioblastoma) > 100 µM | GI50 (A549 NSCLC) > 100 µM | GI50 (HS 578T breast) > 100 µM | GI50 (HCT-116 colon) > 100 µM | GI50 (NCI-H322M lung) > 100 µM | GI50 (UACC-257 melanoma) 52.1 µM | GI50 (NCI-H226 lung) > 100 µM | GI50 (MDA-MB-231 breast) > 100 µM | GI50 (LOX IMVI melanoma) 52.8 µM | GI50 (SR leukemia) > 100 µM | GI50 (MDA-MB-435 melanoma) > 87.3 µM | GI50 (MOLT-4 leukemia) 49 µM | GI50 (SN12C renal) > 100 µM | GI50 (SF-295 CNS) > 100 µM | GI50 (RXF 393 renal) > 76.7 µM | GI50 (UACC-62 melanoma) 27.1 µM | GI50 (HL-60(TB) leukemia) 72.2 µM | GI50 (UO-31 renal) > 100 µM | GI50 (BT-549 breast) > 100 µM | GI50 (MALME-3M melanoma) 16.9 µM | GI50 (SK-OV-3 ovarian) > 100 µM | GI50 (OVCAR-8 ovarian) > 100 µM
> 33.7 µM: TGI (RPMI-8226 leukemia)
49.3 µM: TGI (MDA-MB-468 breast)
45.3 µM: TGI (MALME-3M melanoma)
